{"source": "patent US11453697B1", "about": "“Cyclic di-nucleotide compounds as sting agonists” (Merck Sharp & Dohme Corp., priority 2015, dated 2022)", "data": [{"system": "IFN-β secretion in THP1 cells", "assay": "IFN-β secretion in THP1 cell culture (5 h)", "format": "cell-based, human", "conditions": "not given", "description": "(§1) The ability of compounds to stimulate the secretion of interferon-beta from THP1 cells was measured using a human IFN-β AlphaLISA kit (Perkin Elmer, Cat. No. AL265F). The basic protocol is as follows:\n(§2) The cell viability and count was ascertained using a Beckman Coulter V-Cell XR cell counter. The cells suspension was centrifuged at 200×g for 5 min at RT. […] Subsequent liquid transfers were performed using either a Matrix electronic multichannel pipette or an Agilent Bravo Automated Liquid Handling Platform.\n(§3) The assay was started by dispensing 40 μL of the previously prepared cell suspension into the wells of the plate containing compounds. After 5 h incubation at 37° C., 5% CO2 in a humidified atmosphere, the plate of cells and compounds was centrifuged at 200×g for 5 min at RT. […] To these supernatant-containing wells was added 10 μL of 5× Anti-Analyte Acceptor beads (50 μg/mL of AlphaLISA HiBlock Buffer) and incubated for 30 min at RT while shaking on an orbital plate shaker. To each well was added 10 μL of 5× Biotinylated Antibody Anti-analyte (5 nM in AlphaLISA HiBlock Buffer) and incubated on an orbital plate shaker for 60 min at RT or overnight at 4° C. To each well was added 25 μL of 2× SA-Donor beads (80 μg/mL in AlphaLISA HiBlock Buffer) and incubated for 30-45 min at RT in the dark while shaking on an orbital plate shaker. The plate was then read on a Perkin Elmer Envision (λex=680 nm, λem=[…]). The percent effect of the AlphaLISA signal at each compound concentration was calculated based on 30 uM cGAMP positive controls and 0.3% DMSO negative controls. The plot of percent effect versus the log of compound concentration was fit with a 4-parameter concentration response equation to calculate EC50 values.\n(§4) Compounds of the disclosure were evaluated for IFN-β secretion in THP1 cell culture as described above.", "units": {"% Effect at 30 μM relative to 2′3′-cGAMP": "%"}, "values": [{"smiles": "Nc1nc2c(ncn2[C@@H]2O[C@@H]3COP(=O)(O)OC4C(F)[C@H](n5cnc6c(N)ncnc65)O[C@@H]4COP(=O)(O)OC2C3F)c(=O)[nH]1", "note": "(stereo in doubt) [Example 23, 2-amino-9-[(5R,7R,8S,12aR,14R,15R,15aR,16R)-14-(6-amino-9H-purin-9-yl)-15,16-difluoro-2,10-dihydroxy-2,10-dioxidooctahydro-12H-5,8-methanofuro[3,2-l][1,3,6,9,11,2,10]pentaoxadiphosphacyclotetradecin-7-yl]-1,9-dihydro-6H-purin-6-one]", "% Effect at 30 μM relative to 2′3′-cGAMP": 125}, {"smiles": "Nc1nc2c(ncn2[C@@H]2O[C@@H]3COP(=O)(O)OC4C(F)[C@H](n5cnc6c(N)ncnc65)O[C@@H]4COP(=O)(O)OC2C3O)c(=O)[nH]1", "note": "(stereo in doubt) [Example 2, (5R,7R,8R,12aR,14R,15R,15aR,16R)-7-(2-amino-6-oxo-1,6-dihydro-9H-purin-9-yl)-14-(6-amino-9H-purin-9-yl)-15-fluoro-16-hydroxyoctahydro-12H-5,8-methanofuro[3,2-l] [1,3,6,9,11,2,10]pentaoxadiphosphacyclotetradecine-2,10-diolate 2,10-dioxide]", "% Effect at 30 μM relative to 2′3′-cGAMP": 148}, {"smiles": "Nc1nc2c(ncn2[C@@H]2O[C@@H]3COP(=O)(S)O[C@H]4[C@H](F)[C@H](n5cnc6c(N)ncnc65)O[C@@H]4COP(=O)(S)O[C@@H]2[C@H]3F)c(=O)[nH]1", "note": "(single isomer, unassigned) [Example 145]", "% Effect at 30 μM relative to 2′3′-cGAMP": 141}]}, {"system": "IFN-β secretion in THP1 cells", "assay": "IFN-β secretion in THP1 cell culture (5 h)", "format": "cell-based, human", "conditions": "IFN-β secretion in THP1 cell culture, 5 h; compound at 30 μM; percent activation relative to 2′3′-cGAMP", "description": "as §1, §2, §3, §4", "units": {"% Effect at 30 μM relative to 2′3′-cGAMP": "%"}, "values": [{"smiles": "Nc1nc2c(ncn2[C@@H]2O[C@@H]3COP(=O)(S)OC4[C@@H](COP(=O)(S)O[C@H]2C3O)O[C@@H](n2cnc3c(N)ncnc32)[C@H]4F)c(=O)[nH]1", "note": "(single isomer, unassigned) [Example 82]", "% Effect at 30 μM relative to 2′3′-cGAMP": 111}, {"smiles": "Nc1nc2c(ncn2[C@@H]2O[C@@H]3COP(=O)(S)OC4C5OC[C@]4(COP(=O)(S)OC2C3O)O[C@H]5n2cnc3c(N)ncnc32)c(=O)[nH]1", "note": "(single isomer, unassigned) [Example 94]", "% Effect at 30 μM relative to 2′3′-cGAMP": 138}, {"smiles": "Nc1nc2c(ncn2[C@@H]2O[C@@H]3COP(O)(=S)O[C@H]4[C@@H](F)[C@H](n5cnc6c(N)ncnc65)O[C@@H]4COP(O)(=S)O[C@@H]2[C@@H]3F)c(=O)[nH]1", "note": "(stereo partly drawn) [Example 260, 2-amino-9-[(5R,7R,8S,12aR,14R,15R,15aR,16R)-14-(6-amino-9H-purin-9-yl)-15,16-difluoro-2,10-dihydroxy-2,10-disulfidooctahydro-12H-5,8-methanofuro[3,2-l][1,3,6,9,11,2,10]pentaoxadiphosphacyclotetradecin-7-yl]-1,9-dihydro-6H-purin-6-one]", "% Effect at 30 μM relative to 2′3′-cGAMP": 113}, {"smiles": "Nc1nc2c(ncn2[C@@H]2O[C@@H]3COP(=O)(S)OC4[C@@H](COP(=O)(S)OC2C3O)O[C@@H](n2cnc3c(N)ncnc32)[C@H]4F)c(=O)[nH]1", "note": "(single isomer, unassigned) [Example 90]", "% Effect at 30 μM relative to 2′3′-cGAMP": 117}, {"smiles": "Nc1nc2c(nnn2[C@@H]2O[C@@H]3COP(=O)(S)O[C@H]4[C@H](F)[C@H](n5nnc6c(=O)[nH]cnc65)O[C@@H]4COP(=O)(S)O[C@@H]2C3)c(=O)[nH]1", "note": "(single isomer, unassigned) [Example 341]", "% Effect at 30 μM relative to 2′3′-cGAMP": 7}, {"smiles": "Nc1nc2c(ncn2[C@@H]2O[C@@H]3COP(=O)(S)O[C@H]4[C@@H](O)[C@H](n5ccc6c(N)ncnc65)O[C@@H]4COP(=O)(S)O[C@@H]2C3)c(=O)[nH]1", "note": "(stereo partly drawn) [Example 79, 2-amino-9-[(5S,7R,8R,12aR,14R,15R,15aS)-14-(4-amino-7H-pyrrolo[2,3-d]pyrimidin-7-yl)-15-hydroxy-2,10-dioxido-2,10-disulfanyloctahydro-12H-5,8-methanofuro[3,2-l][1,3,6,9,11,2,10]pentaoxadiphosphacyclotetradecin-7-yl]-1,9-dihydro-6H-purin-6-one]", "% Effect at 30 μM relative to 2′3′-cGAMP": 145}, {"smiles": "Nc1nc2c(ncn2[C@@H]2O[C@@H]3COP(=O)(S)OC4[C@@H](COP(=O)(S)OC2C3O)O[C@@H](n2cnc3c(N)ncnc32)[C@H]4F)c(=O)[nH]1", "note": "(single isomer, unassigned) [Example 92]", "% Effect at 30 μM relative to 2′3′-cGAMP": 62}, {"smiles": "Nc1nc2c(ncn2[C@@H]2O[C@@H]3CO[P@@](=O)(S)OC4[C@@H](CO[P@@](=O)(S)O[C@H]2C3O)O[C@@H](n2cnc3c(N)ncnc32)[C@H]4F)c(=O)[nH]1", "note": "(single isomer, unassigned) [Example 89]", "% Effect at 30 μM relative to 2′3′-cGAMP": 119}, {"smiles": "Nc1nc2c(ncn2[C@@H]2O[C@@H]3COP(=O)(O)O[C@H]4[C@H](F)[C@H](n5nnc6c(=O)[nH]cnc65)O[C@@H]4COP(=O)(S)O[C@@H]2[C@@H]3F)c(=O)[nH]1", "note": "(single isomer, unassigned) [Example 346]", "% Effect at 30 μM relative to 2′3′-cGAMP": 182}, {"smiles": "Nc1nc2c(nnn2[C@@H]2O[C@@H]3COP(=O)(S)O[C@H]4[C@H](F)[C@H](n5cnc6c(=O)[nH]cnc65)O[C@@H]4COP(=O)(S)O[C@@H]2[C@@H]3F)c(=O)[nH]1", "note": "(single isomer, unassigned) [Example 343]", "% Effect at 30 μM relative to 2′3′-cGAMP": 255}, {"smiles": "Nc1nc2c(ncn2[C@@H]2O[C@@H]3COP(=O)(S)OC4[C@@H](COP(=O)(S)OC2C3O)O[C@@H](n2cnc3c(N)ncnc32)[C@H]4F)c(=O)[nH]1", "note": "(single isomer, unassigned) [Example 91]", "% Effect at 30 μM relative to 2′3′-cGAMP": 106}, {"smiles": "Nc1nc2c(ncn2[C@@H]2O[C@@H]3COP(=O)(O)O[C@H]4[C@H](F)[C@H](n5nnc6c(=O)[nH]cnc65)O[C@@H]4COP(=O)(S)O[C@@H]2[C@@H]3F)c(=O)[nH]1", "note": "(single isomer, unassigned) [Example 347]", "% Effect at 30 μM relative to 2′3′-cGAMP": 225}, {"smiles": "Nc1nc2c(nnn2[C@@H]2O[C@@H]3COP(=O)(S)O[C@H]4[C@H](F)[C@H](n5nnc6c(=O)[nH]cnc65)O[C@@H]4COP(=O)(S)O[C@@H]2[C@@H]3F)c(=O)[nH]1", "note": "(single isomer, unassigned) [Example 345]", "% Effect at 30 μM relative to 2′3′-cGAMP": 144}, {"smiles": "Nc1nc2c(ncn2[C@@H]2O[C@@H]3COP(=O)(S)O[C@H]4[C@H](F)[C@H](n5cnc6c(N)ncnc65)O[C@@H]4COP(=O)(O)O[C@@H]2[C@@H]3F)c(=O)[nH]1", "note": "(stereo partly drawn) [Example 143, 2-amino-9-[(5R,7R,8S,12aR,14R,15S,15aR,16R)-14-(6-amino-9H-purin-9-yl)-15,16-difluoro-2,10-dihydroxy-10-oxido-2-sulfidooctahydro-12H-5,8-methanofuro[3,2-l][1,3,6,9,11,2,10]pentaoxadiphosphacyclotetra-decin-7-yl]-1,9-dihydro-6H-purin-6-one]", "% Effect at 30 μM relative to 2′3′-cGAMP": 157}, {"smiles": "Nc1nc2c(ncn2[C@@H]2O[C@@H]3COP(=O)(S)OC4[C@@H](COP(=O)(S)O[C@H]2C3O)O[C@@H](n2cnc3c(N)ncnc32)[C@H]4F)c(=O)[nH]1", "note": "(single isomer, unassigned) [Example 83]", "% Effect at 30 μM relative to 2′3′-cGAMP": 133}, {"smiles": "Nc1nc2c(ncn2[C@@H]2O[C@@H]3COP(O)(=S)O[C@H]4[C@H](F)[C@H](n5cnc6c(N)ncnc65)O[C@@H]4COP(O)(=S)O[C@@H]2[C@@H]3F)c(=O)[nH]1", "note": "(single isomer, unassigned) [Example 246]", "% Effect at 30 μM relative to 2′3′-cGAMP": 217}]}]}
